Source: patent US20250026741A1, “INHIBITORS OF THE ONCOGENIC SHP2 PHOSPHATASE AND USES THEREOF” (Sanford Burnham Prebys Medical Discovery Institute, priority 2021, published 2025)

Experiments:
[1] = tested on: p-ERK1/2 in U-937 AML cells (SHP2 G60R); experiment: Phospho-ERK1/2 immunoblot analysis, U-937; assay type: cell-based; conditions: U-937, 24 h; #02 1, 3, 10, 30 μM; RMC-4550 1 μM
From the text: Oncogenic gain-of-function mutations in SHP2 drive leukemogenesis in a significant number of leukemia patients. However, due to their unique mechanism of action, the existing SHP2 allosteric inhibitors lack activity against the most common SHP2 oncogenic variants. Thus, we tested whether #02 can inhibit the growth of leukemia cells expressing oncogenic SHP2 variants. […] Using the U-937 AML cell line, which harbors a G60R oncogenic mutation in SHP2, we treated cells with either #02 or RMC-4550 at various concentrations, ranging from 0.123 to 30 μM (FIG. 4A). […] We also assessed the effects of #02 and RMC-4550 on ERK1/2 activation in the SHP2 mutant U-937 cell line. Similar to the immunoblot experiments described above, U-937 AML cells were treated with either vehicle control (DMSO), #02 (1, 3, 10, or 30 μM), or with RMC-4550 (1 μM) for 24 h and processed for p-ERK1/2 immunoblot analysis (FIG. 4B).
Total protein extracts were prepared in modified RIPA lysis buffer (25 mM Tris-HCl, pH 7.4, 10% glycerol, 0.2% Triton™ X-100, 150 mM NaCl, 2 mM Na3VO4, 1 mM EDTA) containing a protease inhibitor cocktail (Roche Applied Science, Indianapolis, IN). […] Densitometric quantitation of immunoblots was performed using Image Studio Lite Software. Changes of phosphorylated ERK1/2 to total ERK1/2 rations are expressed as percentage of the vehicle-treated controls. […]

[2] = tested on: p-ERK1/2 in MOLM-13 AML cells; experiment: Phospho-ERK1/2 immunoblot analysis, MOLM-13; assay type: cell-based; conditions: #02 3, 10, 30 μM, RMC-4550 1 μM
Procedure: Because SHP2 activity is critical for ERK activation, we used phospho-ERK1/2 (p-ERK1/2) as a more direct readout of SHP2 inhibitor efficacy. […] However, a greater effect of #02 was observed after 24 h treatment. […] This p-ERK rebound in MOLM-13 cells treated with RMC-4550 is reminiscent of previously reported data from human hepatoma Hep3B cells treated with SHP099.
Total protein extracts were prepared in modified RIPA lysis buffer (25 mM Tris-HCl, pH 7.4, 10% glycerol, 0.2% Triton™ X-100, 150 mM NaCl, 2 mM Na3VO4, 1 mM EDTA) containing a protease inhibitor cocktail (Roche Applied Science, Indianapolis, IN). Equal amounts of protein were separated on 4-12% (p-ERK1/2 blots) or 4-20% (SHP2 blots) Bis-Tris gels by SDS-PAGE and transferred to nitrocellulose (p-ERK1/2 blots) or 0.2 μm PVDF (SHP2 blots) membranes. Membranes were blocked in 5% dry milk (Bio-Rad, Hercules, CA) in TBS-Tween 20 (0.1% vol/vol; TBS-T) for 1 h at room temperature. Protein-bound membranes were incubated with indicated primary antibody overnight at 4° C. After washing three times with TBS-T, membranes were incubated for 1 h with horseradish peroxidase-conjugated secondary antibody, then visualized by an ECL Prime detection system (GE Healthcare). Immunoblotting experiments were carried out at least three times and representative images are shown. Densitometric quantitation of immunoblots was performed using Image Studio Lite Software. Changes of phosphorylated ERK1/2 to total ERK1/2 rations are expressed as percentage of the vehicle-treated controls. The following antibodies were used: Phospho-Erk1/2 Ab, Cell Signaling, #9101S; total Erk1/2 Ab, Cell Signaling, #9102S; SHP2 Ab, Bethyl, A301-544A, lot #1; GAPDH (14C10) mAb, Cell Signaling, #2118S, lot #14.

[3] = target: SHP2-E76K (Homo sapiens (Human), UniProt Q06124, E76K); experiment: Michaelis-Menten kinetics and mode of inhibition; assay type: biochemical
Procedure: Using nonlinear regression, initial rates at various inhibitor and substrate concentrations were fitted to the Michaelis-Menten equations for competitive, noncompetitive, uncompetitive, and mixed inhibition. Fitting models were then compared using Akaike's Information Criterion (AIC), and inhibition mode probabilities were calculated from the differences between the corresponding second-order corrected AIC scores.
#02 was tested with SHP2-E76K using a similar assay format as described above. #02 or vehicle (DMSO) were spotted in triplicate into a black Greiner FLUOTRAC™ 200 384-well microplate (#781076, Greiner) using an Echo 555 Liquid Handler (Labcyte, Inc., San Jose, CA). SHP2-E76K working solution was prepared and dispensed as described above and incubated with inhibitor for 20 min at RT. DiFMUP working solutions at 5×final concentration were prepared in 50 mM Bis-Tris pH 6.0, 50 mMNaCl, and 0.01% Tween 20. […] Fluorescence intensity was measured in kinetic mode as described above. The initial rates were determined from the linear progression curves of each SHP2-E76K reaction. […] For a comparison of the fitting results, the second-order corrected Akaike's Information Criterion (AICc) was calculated using equation 1, where N is the number of data points, SS the absolute sum of squares, and K the number of parameters fit by nonlinear regression plus 1.

[4] = target: SHP2cat (Homo sapiens (Human), UniProt Q06124); experiment: Protein thermal shift (PTS) assay; assay type: binding; conditions: vs vehicle (DMSO) control
From the text: We confirmed specific and dose-dependent binding of inhibitors to SHP2 by protein thermal shift, which monitors the thermal stability of a target protein in vitro. […] In addition, we confirmed the inhibitory activity of several furanylbenzamide inhibitors, including the top two compounds #02 and #01, in SHP2cat inhibition assays using the alternative substrate 3-O-methylfluorescein phosphate (OMFP), which features a peak fluorescence emission that is red-shifted by […] compared to DiFMUP. The Km value of OMFP for SHP2cat was determined to be 50 μM. An OMFP fluorescence intensity-based assay was used to perform inhibitor dose-response experiments and determine IC50 values.
Differential scanning fluorimetry (also known as protein thermal shift) measurements of SHP2cat were performed. #02 was spotted at different concentrations into MicroAmp®384-well real-time PCR plates (#4483285, Applied Biosystems, Waltham, MA) using an Echo 555 Liquid Handler. […] Plates were analyzed using a ViiA® 7 Real-Time PCR instrument (Applied Biosystems, Waltham, MA) and a 12 min temperature gradient with a temperature increase of 0.075° C./s. The melting temperature and thermal profiles were determined using Protein Thermal Shift™ Software v1.3 (Applied Biosystems, Waltham, MA).

SHP2-E76K, sequence (Q06124 whole entry E76K): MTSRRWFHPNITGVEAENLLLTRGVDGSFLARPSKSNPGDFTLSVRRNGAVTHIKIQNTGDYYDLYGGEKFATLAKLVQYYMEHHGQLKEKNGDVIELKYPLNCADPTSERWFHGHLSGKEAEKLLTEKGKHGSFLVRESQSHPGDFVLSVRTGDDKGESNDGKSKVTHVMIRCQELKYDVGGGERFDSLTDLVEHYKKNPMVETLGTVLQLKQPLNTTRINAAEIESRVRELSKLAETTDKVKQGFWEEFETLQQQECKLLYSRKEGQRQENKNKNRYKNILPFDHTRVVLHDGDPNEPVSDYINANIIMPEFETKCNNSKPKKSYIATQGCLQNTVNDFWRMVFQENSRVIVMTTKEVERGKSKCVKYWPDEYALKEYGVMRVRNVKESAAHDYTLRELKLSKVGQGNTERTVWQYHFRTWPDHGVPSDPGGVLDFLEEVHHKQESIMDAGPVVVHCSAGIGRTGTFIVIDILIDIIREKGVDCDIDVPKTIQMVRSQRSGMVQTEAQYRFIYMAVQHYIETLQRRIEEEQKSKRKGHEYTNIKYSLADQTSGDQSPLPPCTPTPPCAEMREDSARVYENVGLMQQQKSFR
SHP2cat, sequence (Q06124 248-527): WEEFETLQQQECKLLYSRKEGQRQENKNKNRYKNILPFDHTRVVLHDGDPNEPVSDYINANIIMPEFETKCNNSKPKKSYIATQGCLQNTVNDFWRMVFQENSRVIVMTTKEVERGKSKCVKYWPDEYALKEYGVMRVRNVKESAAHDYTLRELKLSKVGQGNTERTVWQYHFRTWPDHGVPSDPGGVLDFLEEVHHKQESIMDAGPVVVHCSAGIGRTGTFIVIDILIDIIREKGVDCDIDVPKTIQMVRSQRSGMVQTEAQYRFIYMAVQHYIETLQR

Ki ([3]; DiFMUP substrate, read-out: inhibition constant (Ki) for noncompetitive inhibition): 1800 nM
Structure (SMILES): O=C(Nc1ccccc1)c1cc(-c2ccc(/C=C3\Sc4ccccc4C3=O)o2)ccc1O [#02, (Z)-2-hydroxy-5-(5-((3-oxobenzo[b]thiophen-2(3H)-ylidene)methyl)furan-2-yl)-N-phenylbenzamide]
ERK1/2 activation (p-ERK1/2 levels) [1]: dose-dependently inhibited ERK1/2 activation | ERK1/2 activation (p-ERK1/2 levels) ([2]; MOLM-13, 3 h treatment): dose-dependently inhibits ERK1/2 activation | ERK1/2 activation (p-ERK1/2 levels) ([2]; MOLM-13, 24 h treatment): dose-dependently inhibits ERK1/2 activation | mode of inhibition ([3]; AIC model comparison): noncompetitive or mixed inhibition mechanism | change of SHP2cat melting temperature (Tm) [4]: dose-dependently increased the melting temperature
